Laboratory results taken from patent US11655235B2, “Pyrrolidine and piperidine compounds” (YUHAN CORPORATION, priority 2019, dated 2023).

What was measured:
DPP4 = DPP4 (Homo sapiens, UniProt P27487); test: DPP4 inhibition, fluorogenic substrate H-Gly-Pro-AMC; format: biochemical; design: purchased R&D Systems; conditions: recombinant human DPP4
Recombinant human FAP = molecular target: T1, Recombinant human FAP (Homo sapiens, UniProt Q12884); test: FAP FRET assay, FGF21-sequence FRET peptide substrate; format: biochemical; conditions: FRET peptide with human FGF21 sequence, 6 μM, 37° C.
T1 construct: purchased R&D systems
T1 sequence (Q12884 1-760): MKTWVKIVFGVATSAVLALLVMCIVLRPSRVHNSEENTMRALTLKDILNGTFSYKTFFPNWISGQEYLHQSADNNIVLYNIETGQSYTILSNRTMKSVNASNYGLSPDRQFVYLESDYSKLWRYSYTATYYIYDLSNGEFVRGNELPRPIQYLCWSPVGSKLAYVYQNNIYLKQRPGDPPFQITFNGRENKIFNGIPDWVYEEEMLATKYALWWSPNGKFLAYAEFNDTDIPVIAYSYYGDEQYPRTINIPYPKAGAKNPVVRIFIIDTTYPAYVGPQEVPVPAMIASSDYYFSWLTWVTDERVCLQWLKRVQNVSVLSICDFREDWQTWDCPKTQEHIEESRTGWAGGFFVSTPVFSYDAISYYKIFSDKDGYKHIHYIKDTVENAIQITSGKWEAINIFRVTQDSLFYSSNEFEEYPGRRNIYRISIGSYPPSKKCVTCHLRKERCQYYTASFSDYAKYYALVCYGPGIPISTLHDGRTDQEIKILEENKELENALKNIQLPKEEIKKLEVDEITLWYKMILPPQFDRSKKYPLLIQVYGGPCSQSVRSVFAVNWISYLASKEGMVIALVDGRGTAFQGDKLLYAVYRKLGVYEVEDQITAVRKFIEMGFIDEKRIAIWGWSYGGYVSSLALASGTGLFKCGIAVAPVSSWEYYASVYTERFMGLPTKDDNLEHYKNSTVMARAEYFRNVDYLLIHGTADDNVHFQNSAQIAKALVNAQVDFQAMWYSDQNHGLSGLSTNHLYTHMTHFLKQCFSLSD
Procedure, shortened: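 FRET peptide bearing human FGF21 sequence (6 μM final) cleaved by 10 ng recombinant human FAP at 37° C in HEPES pH 7.2 buffer with NaCl, BSA and EDTA, DMSO up to 0.1%. Signal-rate decrease versus uninhibited control fitted to a four-variable logistic model for IC50.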

DPP4, sequence (P27487 whole entry): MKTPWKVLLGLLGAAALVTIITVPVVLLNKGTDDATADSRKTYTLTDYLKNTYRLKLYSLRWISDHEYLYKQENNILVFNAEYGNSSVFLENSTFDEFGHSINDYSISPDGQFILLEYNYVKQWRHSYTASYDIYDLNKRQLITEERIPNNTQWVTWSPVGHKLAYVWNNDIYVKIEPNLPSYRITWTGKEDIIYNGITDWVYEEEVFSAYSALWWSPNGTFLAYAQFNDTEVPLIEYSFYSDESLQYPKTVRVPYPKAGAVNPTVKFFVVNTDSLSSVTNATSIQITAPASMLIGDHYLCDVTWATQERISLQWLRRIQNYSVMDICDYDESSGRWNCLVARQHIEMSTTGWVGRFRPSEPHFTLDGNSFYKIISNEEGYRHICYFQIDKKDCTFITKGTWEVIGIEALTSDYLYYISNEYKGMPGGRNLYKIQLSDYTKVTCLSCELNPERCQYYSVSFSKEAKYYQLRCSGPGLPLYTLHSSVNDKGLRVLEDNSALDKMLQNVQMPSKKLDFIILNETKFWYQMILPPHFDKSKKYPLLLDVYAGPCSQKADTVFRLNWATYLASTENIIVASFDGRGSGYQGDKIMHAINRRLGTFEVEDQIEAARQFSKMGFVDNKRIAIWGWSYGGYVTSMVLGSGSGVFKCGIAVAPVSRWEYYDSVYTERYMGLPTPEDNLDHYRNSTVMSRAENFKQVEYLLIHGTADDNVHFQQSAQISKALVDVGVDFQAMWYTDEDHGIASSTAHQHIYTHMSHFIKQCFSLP

Compound	IC50 (DPP4) [nM]	IC50 (Recombinant human FAP) [nM]
N#C[C@@H]1C[C@H](F)CN1C(=O)CN1CCC(Nc2ccc3nc(C(F)(F)F)ccc3c2)CC1 [Example 381, (2S,4S)-4-fluoro-1-[2-[4-[[2-(trifluoromethyl)-6-quinolyl]amino]-1-piperidyl]acetyl]pyrrolidine-2-carbonitrile]	10600	14.3
COc1ccnc2ccc(NC3CCN(CC(=O)N4C[C@@H](F)C[C@H]4C#N)CC3)cc12 [Example 382, (2S,4S)-4-fluoro-1-[2-[4-[(4-methoxy-6-quinolyl)amino]-1-piperidyl]acetyl]pyrrolidine-2-carbonitrile]	3150	80
N#C[C@@H]1C[C@H](F)CN1C(=O)CN1CCC(Nc2ccnc(Br)c2)CC1 [Example 383, (2S,4S)-1-[2-[4-[(2-bromo-4-pyridyl)amino]-1-piperidyl]acetyl]-4-fluoro-pyrrolidine-2-carbonitrile]	2800	39.3
CNC(=O)c1ccc(NC2CCN(CC(=O)N3CCC[C@H]3C#N)CC2)c2cccnc12 [Example 395, N-methyl-5-[[1-[2-oxo-2-[(2S)-2-cyanopyrrolidin-1-yl]ethyl]-4-piperidyl]amino]quinoline-8-carboxamide]	6040	18.6
CN(C(=O)c1ccc(NC2CCN(CC(=O)N3CCC[C@H]3C#N)CC2)c2cccnc12)c1ccccc1 [Example 398, N-methyl-5-[[1-[2-oxo-2-[(2S)-2-cyanopyrrolidin-1-yl]ethyl]-4-piperidyl]amino]-N-phenyl-quinoline-8-carboxamide]	14000	98.6
CC(=O)Nc1ccc(NC2CCN(CC(=O)N3CCC[C@H]3C#N)CC2)c2cccnc12 [Example 408, N-[5-[[1-[2-oxo-2-[(2S)-2-cyanopyrrolidin-1-yl]ethyl]-4-piperidyl]amino]-8-quinolyl]acetamide]	8190	12.8

More lines, now with the values ahead:

IC50 (DPP4) [nM]	IC50 (Recombinant human FAP) [nM]	Compound
6890	70.2	N#C[C@@H]1C[C@H](F)CN1C(=O)CN1CCC(Nc2cccc3ncc(C(=O)Nc4ccccc4)cc23)CC1 [Example 388, 5-[[1-[2-oxo-2-[(2S,4S)-2-cyano-4-fluoro-pyrrolidin-1-yl]ethyl]-4-piperidyl]amino]-N-phenyl-quinoline-3-carboxamide]
3890	67.5	CN(Cc1ccccc1)C(=O)c1cnc2cccc(NC3CCN(CC(=O)N4C[C@@H](F)C[C@H]4C#N)CC3)c2c1 [Example 389, N-benzyl-N-methyl-5-[[1-[2-oxo-2-[(2S,4S)-2-cyano-4-fluoro-pyrrolidin-1-yl]ethyl]-4-piperidyl]amino]quinoline-3-carboxamide]
3500	27.5	CN(C)C(=O)c1ccc(NC2CCN(CC(=O)N3C[C@@H](F)C[C@H]3C#N)CC2)c2cccnc12 [Example 391, N,N-dimethyl-5-[[1-[2-oxo-2-[(2S,4S)-2-cyano-4-fluoro-pyrrolidin-1-yl]ethyl]-4-piperidyl]amino]quinoline-8-carboxamide]
2070	50.6	CN(C(=O)c1ccc(NC2CCN(CC(=O)N3C[C@@H](F)C[C@H]3C#N)CC2)c2cccnc12)c1ccccc1 [Example 392, N-methyl-5-[[1-[2-oxo-2-[(2S,4S)-2-cyano-4-fluoro-pyrrolidin-1-yl]ethyl]-4-piperidyl]amino]-N-phenyl-quinoline-8-carboxamide]
3310	43.8	CN(Cc1ccccc1)C(=O)c1ccc(NC2CCN(CC(=O)N3C[C@@H](F)C[C@H]3C#N)CC2)c2cccnc12 [Example 393, N-benzyl-N-methyl-5-[[1-[2-oxo-2-[(2S,4S)-2-cyano-4-fluoro-pyrrolidin-1-yl]ethyl]-4-piperidyl]amino]quinoline-8-carboxamide]
28500	38.9	CN(Cc1ccccc1)C(=O)c1ccc(NC2CCN(CC(=O)N3CCC[C@H]3C#N)CC2)c2cccnc12 [Example 397, N-benzyl-N-methyl-5-[[1-[2-oxo-2-[(2S)-2-cyanopyrrolidin-1-yl]ethyl]-4-piperidyl]amino]quinoline-8-carboxamide]
